Assay results as given in article PMC10904834 (Nature Communications, 2024).

Columns and labels:
BcATG4 [1] = molecular target: T1, BcATG4 (Botrytis cinerea, UniProt A6SDQ3); experiment: isothermal titration calorimetry
T1 construct: gene atg4

MoATG4 [2] = molecular target: T2, MoATG4 (Pyricularia oryzae, UniProt Q523C3); experiment: biochemical
T2 construct: gene ATG4

MoATG4 [3] = molecular target: T2, MoATG4; details: 10 uM compound; RT, 10 min preincubation; thiol-reactive, proposed covalent
BcATG4 [4] = molecular target: T1, BcATG4

T2 sequence (Q523C3 whole entry, looked up): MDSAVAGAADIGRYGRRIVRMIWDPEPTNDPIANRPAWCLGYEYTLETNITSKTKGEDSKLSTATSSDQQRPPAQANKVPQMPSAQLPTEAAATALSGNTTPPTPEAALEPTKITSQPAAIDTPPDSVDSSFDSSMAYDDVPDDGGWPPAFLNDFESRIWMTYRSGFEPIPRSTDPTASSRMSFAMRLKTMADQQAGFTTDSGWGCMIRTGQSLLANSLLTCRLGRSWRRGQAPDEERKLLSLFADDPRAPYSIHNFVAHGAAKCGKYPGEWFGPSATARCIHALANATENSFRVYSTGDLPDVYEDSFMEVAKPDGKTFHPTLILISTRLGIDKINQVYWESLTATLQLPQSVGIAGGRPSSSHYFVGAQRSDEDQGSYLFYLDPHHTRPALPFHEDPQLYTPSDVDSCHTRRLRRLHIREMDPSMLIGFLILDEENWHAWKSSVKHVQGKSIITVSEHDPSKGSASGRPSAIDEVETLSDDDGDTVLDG
T1 sequence (A6SDQ3 whole entry): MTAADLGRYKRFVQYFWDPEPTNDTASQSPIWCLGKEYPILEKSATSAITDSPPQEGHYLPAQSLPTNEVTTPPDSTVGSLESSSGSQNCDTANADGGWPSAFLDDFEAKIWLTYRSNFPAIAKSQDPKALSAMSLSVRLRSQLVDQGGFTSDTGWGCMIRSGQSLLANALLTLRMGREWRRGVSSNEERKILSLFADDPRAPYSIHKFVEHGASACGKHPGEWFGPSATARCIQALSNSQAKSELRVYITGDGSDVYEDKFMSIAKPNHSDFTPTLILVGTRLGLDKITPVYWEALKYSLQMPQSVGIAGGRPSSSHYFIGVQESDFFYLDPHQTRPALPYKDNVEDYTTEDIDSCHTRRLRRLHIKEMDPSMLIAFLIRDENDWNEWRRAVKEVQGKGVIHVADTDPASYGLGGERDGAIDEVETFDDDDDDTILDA

O=c1c2ccccc2[se]n1-c1ccccc1 [EB, ebselen]
Kd (BcATG4 [1]): 3.4 nM | Kd (MoATG4 [2]): 1 nM | in vitro cleavage of Citrine-MoATG8-ShR sensor, western blot (MoATG4 [3]): strong inhibition of the MoATG4-mediated cleavage of MoATG8 by EB and its analogs | IC50 (BcATG4 [4]): 620 ± 30 nM

Cc1ccc(-n2sc3ccccc3c2=O)cc1 [PT, 2-(4-methylphenyl)−1,2-benzisothiazol-3(2H)-one]
in vitro cleavage of Citrine-MoATG8-ShR sensor, western blot (MoATG4 [3]): strong inhibition of the MoATG4-mediated cleavage of MoATG8 by EB and its analogs | IC50 (BcATG4 [4]): 1790 ± 240 nM

O=C1c2ccccc2[Se](=O)N1c1ccccc1 (centres unmarked) [EO, ebselen oxide]
in vitro cleavage of Citrine-MoATG8-ShR sensor, western blot (MoATG4 [3]): strong inhibition of the MoATG4-mediated cleavage of MoATG8 by EB and its analogs | IC50 (BcATG4 [4]): 500 ± 30 nM
